Data set [1] is described as follows: Microsomal stability, human liver microsomes. The settings on record: percentage of compound remaining after 60 minutes, 3 μM compound. In kind it is in vitro ADME. As for the experimental part: (§1) 40 μL of deionised water was added to a well of a polypropylene Matrix 2D barcode labelled storage tube (Thermo Scientific) and pre-incubated at 37° C.
(§2) A co-factor containing MgCl2, glucose-6-phosphate and NADP+ was prepared in deionised water and placed on ice before use.
(§3) A final working solution containing liver microsomes (Xenotech of a species of interest (human, mouse, rat, dog), previously described G6PDH and co-factors was prepared and this mix was incubated for no longer than 20 minutes at room temperature.
(§4) 30 μL of the pre-heated compound dilution was added to 40 μL of pre-heated water in the Matrix tubes and 30 μL of the microsomal mix was added.
(§5) To measure percentage remaining of compound at time zero MeOH or ACN was added (1:1) to the well before adding the microsomal mix.
(§6) The samples which were not stopped are incubated at 37° C., 300 rpm and after 1 hour of incubation the reaction was stopped with MeOH or ACN (1:1).
(§7) After stopping the reaction the samples were mixed and placed on ice for 30 min to precipitate the proteins.
(§8) The samples were analyzed on LCMS with a flow rate of 1 mL/min. Solvent A was 15 mM ammonia and solvent B was methanol or acetonitrile, depending on the stop solution used. […] The percentage remaining after 1 hour incubation was calculated from time 0 and was calculated as the percentage remaining.
(§9) The data on microsomal stability are expressed as a percentage of the total amount of compound remaining after 60 minutes.

For the next data set, the system named is MMP13 in SW1353 cells. The data set is described as follows: OSM/IL-1β signaling assay (MMP13 levels in SW1353 cells).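 Also: secreted MMP13 captured by antibody, activated with APMA and its activity read by fluorescence, inhibition scaled between vehicle-treated triggered wells (0%) and untriggered wells (100%).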 The conditions noted are these: Homo sapiens; SW1353 cells, OSM and IL-1β triggered, MMP13 levels 48 hours after triggering; read-out: MMP13 EC50. In kind it is cell-based.
Data set [2] deals with Recombinant human JAK1 catalytic domain (Homo sapiens (Human), UniProt P23458). Description: JAK1 inhibition assay. In kind it is biochemical. The conditions noted are these: semi-quantitative score. In outline: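 Radiometric assay read by scintillation counting after phosphoric-acid washes. Percent inhibition calculated from cpm relative to vehicle and 10 μM staurosporine control. IC50 derived from compound dose-dilution series.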
Sequence of Recombinant human JAK1 catalytic domain (P23458 850-1154): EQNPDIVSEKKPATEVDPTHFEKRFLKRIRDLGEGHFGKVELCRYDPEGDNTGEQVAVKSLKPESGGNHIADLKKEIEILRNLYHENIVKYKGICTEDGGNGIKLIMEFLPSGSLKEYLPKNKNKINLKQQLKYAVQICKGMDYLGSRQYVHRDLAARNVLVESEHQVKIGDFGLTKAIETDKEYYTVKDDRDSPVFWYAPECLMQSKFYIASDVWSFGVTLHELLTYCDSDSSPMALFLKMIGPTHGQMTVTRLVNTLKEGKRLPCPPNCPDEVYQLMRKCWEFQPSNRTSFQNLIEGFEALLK

The subject of data set [3] is JAK-STAT signalling in HeLa cells. Description: JAK-STAT signalling assay (OSM-triggered pSTAT1(2)-luciferase reporter in HeLa cells). It counts as cell-based. The settings on record: Homo sapiens; HeLa cells, OSM-triggered pSTAT1(2)-luciferase reporter; read-out: STAT signalling EC50. In outline: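 HeLa cells transiently transfected with pSTAT1(2)-luciferase reporter plus LacZ internal control, incubated overnight at 37 °C, 10% CO2, then OSM-stimulated with compound. Luciferase read by Steadylite luminescence and normalised to β-galactosidase (ONPG); percent inhibition from controls, EC50 from dose-response.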
For orientation: In a reporter assay the amount or activity of a reporter protein is the signal.

A short description of data set [4]: Microsomal stability, rat liver microsomes. It counts as in vitro ADME. The settings on record: percentage of compound remaining after 60 minutes, 3 μM compound. As for the experimental part: as §1, §2, §3, §4, §5, §6, §7, §8, §9
In general terms: Liver microsomes are a subcellular fraction often used to study metabolism.

Data set [5] deals with Recombinant human JAK2 catalytic domain (Homo sapiens (Human), UniProt O60674). Description: JAK2 inhibition assay. In kind it is biochemical. The conditions noted are these: semi-quantitative score. In outline:
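Radiometric kinase reactions ran for 90 min at 30 °C and were stopped with phosphoric acid, then washed and counted by scintillation. Percent inhibition was set relative to vehicle and to 10 μM staurosporine background. IC50 was derived from dose-dilution series.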

Sequence of Recombinant human JAK2 catalytic domain (O60674 808-1132): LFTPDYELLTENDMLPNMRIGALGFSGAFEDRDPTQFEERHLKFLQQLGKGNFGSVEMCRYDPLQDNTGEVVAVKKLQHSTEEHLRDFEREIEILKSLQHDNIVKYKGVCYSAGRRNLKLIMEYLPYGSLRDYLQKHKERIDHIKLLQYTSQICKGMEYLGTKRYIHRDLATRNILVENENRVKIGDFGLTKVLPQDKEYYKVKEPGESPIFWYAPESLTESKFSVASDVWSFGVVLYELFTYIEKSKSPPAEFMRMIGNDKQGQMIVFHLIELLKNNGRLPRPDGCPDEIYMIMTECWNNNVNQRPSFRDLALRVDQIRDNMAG

As for `O=C(Nc1nc2cccc(-c3ccc(CCc4ccccn4)cc3)n2n1)C1CC1` [Compound 211, Cyclopropanecarboxylic Acid {5-[4-(2-pyridin-2-yl-ethyl)-phenyl]-[1,2,4]triazolo[1,5-a]pyridin-2-yl}-amide], in data set [1], the “Microsomal Stability Human (%)” value is given as “* (* 0-25)”. For the same compound, the EC50 (with MMP13 in SW1353 cells; in data set [3]) was 501 to 1000 nM in each case. Further, the concentration for half-maximal inhibition (IC50) in data set [2] and in data set [5] was less than 100 nM in each case. In data set [4], the “Microsomal Stability Rat (%)” value is listed as “* (* 0-25)”.

Take `O=C(Nc1nc2cccc(-c3ccc(C(=O)N4CCCCC4)cc3F)n2n1)C1CC1` [Compound 89, N-(5-(2-fluoro-4-(piperidine-1-carbonyl)phenyl)-[1,2,4]triazolo[1,5-a]pyridin-2-yl)cyclopropanecarboxamide]: the “Microsomal Stability Human (%)” value in data set [1] is listed as “*** (*** 51-75)”. The EC50 (in the data set on MMP13 in SW1353 cells; in data set [3]) was greater than 1000 nM each time. For the same compound, the half-maximal inhibitory concentration (IC50) (in general, the concentration at which inhibition is half-maximal) in data set [2] was less than 100 nM. For the same compound, in data set [4], the “Microsomal Stability Rat (%)” value is listed as “* (* 0-25)”.

`N#CC1(C(=O)Nc2ccc(-c3cccc4nc(NC(=O)C5CC5)nn34)cc2)CC1` [Compound 177, 1-cyano-N-(4-(2-(cyclopropanecarboxamido)-[1,2,4]triazolo[1,5-a]pyridin-5-yl)phenyl)cyclopropanecarbox-amide]: in data set [1], the “Microsomal Stability Human (%)” value is “**** (**** 76-100)”. Further, the half-maximal effective concentration (EC50) (with MMP13 in SW1353 cells; in data set [3]) was greater than 1000 nM throughout. In data set [2], the IC50 is less than 100 nM. Further, the “Microsomal Stability Rat (%)” value in data set [4] is “**** (**** 76-100)”.

On to `O=C(Nc1nc2cccc(-c3ccc(NCCc4ccccc4)nc3)n2n1)C1CC1` [Compound 123, N-(5-(6-(phenethylamino)pyridin-3-yl)-[1,2,4]triazolo[1,5-a]pyridin-2-yl)cyclopropanecarboxamide], for which the “Microsomal Stability Human (%)” value in data set [1] is “* (* 0-25)”. The EC50 (in the data set with MMP13 in SW1353 cells; in data set [3]) was greater than 1000 nM each time. The half-inhibitory concentration (IC50) in data set [2] was less than 100 nM. For the same compound, the “Microsomal Stability Rat (%)” value in data set [4] was “* (* 0-25)”.

On to `CC1CC(C)CN(C(=O)c2ccc(-c3cccc4nc(NC(=O)C5CC5)nn34)cc2)C1` (stereo not shown) [Compound 134], for which the “Microsomal Stability Human (%)” value in data set [1] is “*** (*** 51-75)”. Also, the half-maximal effective concentration (EC50) (in general, the midpoint of the concentration-response curve) with MMP13 in SW1353 cells is greater than 1000 nM; in data set [3] it was 501 to 1000 nM. Moreover, the IC50 in data set [2] is less than 100 nM. In addition, the “Microsomal Stability Rat (%)” value in data set [4] is “** (** 26-50)”.

As to `O=C(Nc1nc2cccc(-c3ccc(C(=O)N4CCC(F)CC4)cc3)n2n1)C1CC1` [Compound 137, N-(5-(4-(4-fluoropiperidine-1-carbonyl)phenyl)-[1,2,4]triazolo[1,5-a]pyridin-2-yl)cyclopropanecarboxamide], the “Microsomal Stability Human (%)” value in data set [1] is on record as “*** (*** 51-75)”. Besides, the half-maximal effective concentration (EC50) with MMP13 in SW1353 cells was greater than 1000 nM; in data set [3], 501 to 1000 nM. Also, the IC50 in data set [2] was less than 100 nM. The “Microsomal Stability Rat (%)” value in data set [4] is on record as “**** (**** 76-100)”.

On to `O=C(Nc1nc2cccc(-c3ccc(C(=O)N4CCC(c5cc6ccccc6[nH]5)CC4)cc3)n2n1)C1CC1` [Compound 138], for which, in data set [1], the “Microsomal Stability Human (%)” value is “** (** 26-50)”. The concentration for a half-maximal effect (EC50) in the data set with MMP13 in SW1353 cells was greater than 1000 nM; in data set [3], 101 to 500 nM. For the same compound, the 50% inhibitory concentration (IC50) in data set [2] was less than 100 nM. The “Microsomal Stability Rat (%)” value in data set [4] is recorded as “*** (*** 51-75)”.

Turning to `O=C(N[C@@H]1CCN(Cc2ccccc2)C1)c1ccc(-c2cccc3nc(NC(=O)C4CC4)nn23)cc1` [Compound 120, (R)-N-(1-benzylpyrrolidin-3-yl)-4-(2-(cyclopropanecarboxamido)-[1,2,4]triazolo[1,5-a]pyridin-5-yl)benzamide], the “Microsomal Stability Human (%)” value in data set [1] was “* (* 0-25)”. Further, the concentration for a half-maximal effect (EC50) (with MMP13 in SW1353 cells; in data set [3]) was greater than 1000 nM in each case. The 50% inhibitory concentration (IC50) in data set [2] was less than 100 nM. In data set [4], the “Microsomal Stability Rat (%)” value is “* (* 0-25)”.

Turning to `CN(C)CCN(Cc1ccccc1)C(=O)c1ccc(-c2cccc3nc(NC(=O)C4CC4)nn23)cc1` [Compound 150, N-benzyl-4-(2-(cyclopropanecarboxamido)-[1,2,4]triazolo[1,5-a]pyridin-5-yl)-N-(2-(dimethylamino)ethyl)benzamide], the “Microsomal Stability Human (%)” value in data set [1] was “*** (*** 51-75)”. Besides, the EC50 (in the data set on MMP13 in SW1353 cells; in data set [3]) was greater than 1000 nM each time. In addition, the 50% inhibitory concentration (IC50) in data set [2] was less than 100 nM. Besides, the “Microsomal Stability Rat (%)” value in data set [4] is “* (* 0-25)”.

Regarding `O=C(Nc1nc2cccc(-c3ccc(C(=O)N4CCCC(c5ccccc5)C4)cc3)n2n1)C1CC1` (stereo not shown) [Compound 169, N-(5-(4-(3-phenylpiperidine-1-carbonyl)phenyl)-[1,2,4]triazolo[1,5-a]pyridin-2-yl)cyclopropanecarboxamide], the “Microsomal Stability Human (%)” value in data set [1] was “* (* 0-25)”. In addition, the EC50 (with MMP13 in SW1353 cells; in data set [3]) was greater than 1000 nM each time. Further, the half-inhibitory concentration (IC50) in data set [2] was less than 100 nM. Besides, the “Microsomal Stability Rat (%)” value in data set [4] is on record as “* (* 0-25)”.

Turning to `O=C(Nc1nc2cccc(-c3ccc(NS(=O)(=O)c4cccnc4)cc3)n2n1)C1CC1` [Compound 64, N-(5-(4-(pyridine-3-sulfonamido)phenyl)-[1,2,4]triazolo[1,5-a]pyridin-2-yl)cyclopropanecarboxamide], the “Microsomal Stability Human (%)” value in data set [1] is “**** (**** 76-100)”. Moreover, the EC50 (in the data set with MMP13 in SW1353 cells; in data set [3]) was greater than 1000 nM throughout. The IC50 in data set [2] was less than 100 nM. For the same compound, in data set [4], the “Microsomal Stability Rat (%)” value is on record as “*** (*** 51-75)”.

Regarding `O=C(Nc1ccncc1)c1ccc(-c2cccc3nc(NC(=O)C4CC4)nn23)cc1` [Compound 25, 4-(2-(cyclopropanecarboxamido)-[1,2,4]triazolo[1,5-a]pyridin-5-yl)-N-(pyridin-4-yl)benzamide], in data set [1], the “Microsomal Stability Human (%)” value is “* (* 0-25)”. The EC50 (with MMP13 in SW1353 cells; in data set [3]) was greater than 1000 nM throughout. Also, the IC50 in data set [2] was less than 100 nM. Further, in data set [4], the “Microsomal Stability Rat (%)” value is recorded as “* (* 0-25)”.

Take `CC1CCCCN1C(=O)c1ccc(-c2cccc3nc(NC(=O)C4CC4)nn23)cc1` (stereo not shown) [Compound 144, N-(5-(4-(2-methylpiperidine-1-carbonyl)phenyl)-[1,2,4]triazolo[1,5-a]pyridin-2-yl)cyclopropanecarboxamide]: in data set [1], the “Microsomal Stability Human (%)” value is on record as “** (** 26-50)”. Further, the EC50 (with MMP13 in SW1353 cells; in data set [3]) was greater than 1000 nM throughout. In data set [2], the IC50 is less than 100 nM. In addition, the “Microsomal Stability Rat (%)” value in data set [4] is reported as “* (* 0-25)”.

On to `COC(=O)c1ccc(COc2ccc(-c3cccc4nc(NC(=O)C5CC5)nn34)cc2)nc1` [Compound 190], for which, in data set [1], the “Microsomal Stability Human (%)” value was “* (* 0-25)”. The EC50 (in the data set on MMP13 in SW1353 cells; in data set [3]) was greater than 1000 nM throughout. In addition, in data set [2], the concentration for half-maximal inhibition (IC50) is less than 100 nM. For the same compound, the “Microsomal Stability Rat (%)” value in data set [4] was “* (* 0-25)”.

For `CN(C(=O)COc1ccc(-c2cccc3nc(NC(=O)C4CC4)nn23)cc1)c1ccccc1` [Compound 118, N-(5-(4-(2-(methyl(phenyl)amino)-2-oxoethoxy)phenyl)-[1,2,4]triazolo[1,5-a]pyridin-2-yl)cyclopropanecarboxamide], the “Microsomal Stability Human (%)” value in data set [1] was “* (* 0-25)”. Also, the 50% effective concentration (EC50) (in the data set on MMP13 in SW1353 cells; in data set [3]) was greater than 1000 nM in each case. Moreover, the 50% inhibitory concentration (IC50) in data set [2] was less than 100 nM. Besides, the “Microsomal Stability Rat (%)” value in data set [4] is on record as “* (* 0-25)”.

(Values after patent US10206907B2, “Compounds useful for the treatment of degenerative and inflammatory diseases” (GALAPAGOS NV, priority 2008, dated 2019).)
